Test results published in US20130079287A1, “CAFFEOYLALPHANEOENDORPHIN PEPTIDE DERIVATIVE AND USE THEREOF AS ANTI-ITCHING AND ANTI-ATOPIC AGENTS” (priority 2011, published 2013).
Values joined by “and” are separate entries in the source; they are usually repeats but may differ in a detail not shown here. Equal entries are not always repeated. Marks after values point to notes of the source that are not given here. One block for each compound: values may come before it. Where a SMILES comes first, the peptide text is derived from it. Where no end group is shown, it is not given here. The star is where a group is joined. Caffeoyl = O=C(/C=C/c1ccc(O)c(O)c1)*

Assays:
[1] = Physical stability test under alternating temperature; assay type: physicochemical; details: alternating temperature 4/20/40° C. at 8 h interval, up to 60 days, naked eye
From the text: The physical stability under the condition of severe alternating temperature is an essential factor in the terms of the product property to be exposed to various external atmospheres in the case of cosmetics. The caffeoylalphaneoendorphin peptide derivative prepared from Example 1 has an increased stability to oxidation rather than that of caffeic acid in an aqueous solution. In order to confirm the increased physical stability, it was stored under the condition of alternating temperature for certain period time, and then its degradation degree was measured.
Firstly, 10,000 ppm concentration of caffeoylalphaneoendorphin peptide derivative aqueous solution was placed under the conditions of alternating temperatures, that is, low temperature (4° C.), room temperature (20° C.), and high temperature (40° C.) that were repeated at an interval of 8 hours, and then the physical stability was measured by the naked eye and HPLC Analysis for 30 days, 60 days, and 90 days.

[2] = system: peptidase derived from the cell disruption solution of keratinocyte; assay: Stability to peptidase, cell disruption solution of keratinocyte; details: 10,000 ppm, 37° C., 6 hours
Experimental: (§1) After culturing at 37° C. for 6 hours, the residual contents were analyzed, and the existing contents were compared and evaluated on a percentage (%) to the initial existing contents.

[3] = system: peptidase derived from the cell disruption solution of fibroblast; assay: Stability to peptidase, cell disruption solution of fibroblast; details: 10,000 ppm, 37° C., 6 hours
Experimental: as §1

NZW Rabbit skins = assay: Skin irritation safety test (topical toxicity); assay type: in vivo, New Zealand White-Rabbit; design: key to Erythema & Eschar score: 0: Absolutely no erythema; 1: Very light erythema (barely identifiable level with the naked eye); 2: Obvious erythema; 3: A little serious erythema; 4: Serious erythema (carrot color) and crust formation; key to clinical signs: —: Normal; details: for clinical signs: female rabbit; for Edema score, Average / Edema score, Sum / Erythema & Eschar score, Average / Erythema & Eschar score, Sum: 6 animals
Experimental: In order to confirm the safety of caffeoyl peptide derivative according to the present invention to a human body skin when applying besides a skin that is an expected first human body application method, a topical toxicity skin irritation safety that is pre-clinical test method of pharmaceuticals was verified. The safety verification was performed by asking to Korea Research Institute of Chemical Technology that is an approved GLP Certificate Authority; the maximum application concentration range to skin irritation during topical toxicity was set at 10 mg/ml concentration, and then it was tested that irritant to a skin at the above concentration was not existed. For the above test, at least 6 of young and healthy white rabbits (New Zealand White-Rabbit, 2.0˜3.0 kg) were used. After selecting only healthy rabbits through observing a general symptom every day for 5 days during an accommodating period from an obtaining day, hairs of the abdominal regions of the selected rabbits was shaved away and then 6 rabbits with normal skins were used for test. […] An keeping environment was simply as follows: the test was performed in a rabbit keeping room in the institute by setting the temperature of 22° C., the relative humidity of 50%, a number of ventilation of 10˜15 number/hr, lighting of 12 h lights-on/12 h lights-off (08:00˜20:00), an intensity of illumination of 150˜300 Lux. For monitoring of keeping environment, whole humidity in an animal room was measured by an auto-measurer and environment conditions, such as, an intensity of illumination were regularly measured during a test period. As a result of environment measurement in an animal room, there was no change to affect to the test. The animals were kept individually in a stainless keeping box (380×480×300 mm, JungDo Industry) during accommodation, inspection, and observation periods. Feeds that was feeds for Rabbits, experiment animals, supplied from Cargillagripurina Cor. (Chonbuk, Gunsan-si Soyong dong 56-4) was freely taken by the animals, and water that was a filtered water through UV irradiation was freely taken by using a water bottle. In order to confirm the contaminant in the feeds and water, the contaminant of feeds was confirmed by receiving the feed report card according to regular test of manufacturer from a feeds supplier, and the contaminant of water was confirmed through the regular test according to applicable standard working water procedure (SOPs) of the institute.
The caffeoylalphaneoendorphin peptide derivative that was a test material prepared from Example 1 was dissolved in a concentration of 10 mg/ml (10,000 ppm), and then 0.5 ml per each animal was used by using the following method. […] The abraded skins were made to have a scratch without blood by using a needle end of syringe so that the horny layer of the skin was damaged, but the corium of the skin was not damaged. After the test materials were applied to one site of abraded skins and one site of intact skins, the sites were occlusive-patched with non-irritative tape and Coban for 24 hours. Control regions were applied with sterilized gauze wetted with sterilized distilled water by using the same method as the above (see FIG. 4).
In order to observe as to whether skin irritation was occurred, a change of general symptoms and as to whether animals were killed were observed during 72 hours after completing the application of test materials as the observation of general symptoms. In addition, the body weights per individual were measured immediately before applying the test materials and at 72 hours after applying the test materials. […] The evaluation of skin response and decision of irritant were performed based on the evaluation table of skin response as disclosed in the following Table 1. The decision of irritant content to the result was performed according to a calculation method of P.I.I. (Primary Irritation Index) by Draize, which is well used, generally (see Table 2).

[4] = test sites, abraded skin, 24 hour
[5] = test sites, abraded skin, 72 hour
[6] = test sites, intact skin, 24 hour
[7] = test sites, intact skin, 72 hour

acidification of aqueous solution (change of transparency) [1]: serious acidification
Compound: O=C(O)/C=C/c1ccc(O)c(O)c1 [caffeic acid]

Compound: YGGFLRKYPK [alphaneoendorphin]
degradation by peptidase [2]: considerably degraded
degradation by peptidase [3]: considerably degraded

Compound: CC(C)C[C@H](NC(=O)[C@H](Cc1ccccc1)NC(=O)CNC(=O)CNC(=O)[C@H](Cc1ccc(O)cc1)NC(=O)/C=C/c1ccc(O)c(O)c1)C(=O)N[C@@H](CCCNC(=N)N)C(=O)N[C@@H](CCCCN)C(=O)N[C@@H](Cc1ccc(O)cc1)C(=O)N1CCC[C@H]1C(=O)N[C@@H](CCCCN)C(=O)O [Caffeoyl (R1, R2, and R5 are hydrogen, and R3 and R4 are hydroxy)-alphaneoendorphin Peptide Derivative] (Caffeoyl-YGGFLRKYPK-OH)
Body weights (NZW Rabbit skins; 0 hours (immediately before applying), per animal): 2237.2 g and 2511.9 g and 2684.9 g and 2408.4 g and 2478.1 g and 2347.3 g
changes of body weights of all animals (NZW Rabbit skins; 0 to 72 hours): normally increased
Body weight gains (NZW Rabbit skins; 0 to 72 hours, per animal): 76.2 g and 119.5 g and 103.1 g and 88.3 g and 133.6 g and 107.1 g
toxicity in skin irritation test of topical toxicity (NZW Rabbit skins; 10 mg/ml): no toxicity
Irritant Evaluation by P.I.I. (NZW Rabbit skins; 10 mg/ml applied over NZW Rabbit skins): none irritant
clinical signs (NZW Rabbit skins; 10 mg/ml, 0.5 ml per animal, 0 hours after application, per animal): —
clinical signs (NZW Rabbit skins; 10 mg/ml, 0.5 ml per animal, 24 hours after application, per animal): —
clinical signs (NZW Rabbit skins; 10 mg/ml, 0.5 ml per animal, 48 hours after application, per animal): —
clinical signs (NZW Rabbit skins; 10 mg/ml, 0.5 ml per animal, 72 hours after application, per animal): —
Mortality (Number of dead animals/Number of total animals) (NZW Rabbit skins; 10 mg/ml, 0.5 ml per animal, female rabbits, 72 hours): 0/6^a
Body weights (NZW Rabbit skins; 72 hours after application, per animal): 2313.4 g and 2631.4 g and 2788.0 g and 2496.7 g and 2611.7 g and 2454.4 g
death or unusual symptoms related to the application (NZW Rabbit skins; during the test period): no death or unusual symptoms
P.I.I (Primary Irritation Index) (NZW Rabbit skins; test sites, 10 mg/ml, (Sum or mean at 24 and 72 hrs)/4): 0.0
Edema score, Average (NZW Rabbit skins; [4]): 0
Edema score, Sum (NZW Rabbit skins; [4]): 0
Erythema & Eschar score, Average (NZW Rabbit skins; [4]): 0
Erythema & Eschar score, Sum (NZW Rabbit skins; [4]): 0
Erythema & Eschar score (NZW Rabbit skins; test sites, abraded skin, 24 hour, per animal): 0
Edema score, Average (NZW Rabbit skins; [5]): 0
Edema score, Sum (NZW Rabbit skins; [5]): 0
Erythema & Eschar score, Average (NZW Rabbit skins; [5]): 0
Erythema & Eschar score, Sum (NZW Rabbit skins; [5]): 0
Erythema & Eschar score (NZW Rabbit skins; test sites, abraded skin, 72 hour, per animal): 0
Sum of Averages (NZW Rabbit skins; test sites, erythema & eschar and edema, 24 and 72 hour): 0.0
Edema score, Average (NZW Rabbit skins; [6]): 0
Edema score, Sum (NZW Rabbit skins; [6]): 0
Erythema & Eschar score, Average (NZW Rabbit skins; [6]): 0
Erythema & Eschar score, Sum (NZW Rabbit skins; [6]): 0
Erythema & Eschar score (NZW Rabbit skins; test sites, intact skin, 24 hour, per animal): 0
Edema score, Average (NZW Rabbit skins; [7]): 0
Edema score, Sum (NZW Rabbit skins; [7]): 0
Erythema & Eschar score, Average (NZW Rabbit skins; [7]): 0
Erythema & Eschar score, Sum (NZW Rabbit skins; [7]): 0
Erythema & Eschar score (NZW Rabbit skins; test sites, intact skin, 72 hour, per animal): 0
degradation by peptidase [2]: almost not degraded
increase of existing contents versus alphaneoendorphin ([2]; HPLC): 6.1±1.3 times
degradation by peptidase [3]: almost not degraded
increase of existing contents versus alphaneoendorphin ([3]; HPLC): 5.9±2.1 times
